Here are results for 10 compounds from patent US20230257376A1, “ROCK INHIBITOR, AND PREPARATION METHOD THEREFOR AND USE THEREOF” (WUHAN LL SCIENCE AND TECHNOLOGY DEVELOPMENT CO., LTD., priority 2020, published 2023).

SMILES strings stand for the structures.

In one data set the target is T1, ROCK2 kinase (Homo sapiens, UniProt O75116).
T1 construct: purchased Invitrogen PV3759
Kind of data set: In vitro evaluation of ROCK2 kinase activity (HTRF KinEASE-STK time-resolved fluorometric assay). It is filed as biochemical. To be noted: ROCK2 kinase 0.4 ng/μL, ATP 6.739 μM. In outline:
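Recombinant kinase (0.4 ng/μL final) preincubated 0.5 h at RT with compound (1% DMSO), then 2 h with 6.739 μM ATP and 1 μM biotinylated STK substrate 2 (final). HTRF readout via STK antibody-cryptate/streptavidin-XL665 after ~1 h; buffer 5 mM MgCl2, 1 mM DTT.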

The nature of data set [1]: In vitro metabolic stability, guinea pig liver microsome incubation. It is filed as in vitro ADME. The settings on record: liver microsomes, 1 mg/mL protein, 37° C., read-out: T1/2 in guinea pig liver microsome. The procedure: (§1) The in vitro metabolic stability of the compounds disclosed herein was determined through incubation of liver microsomes of various species. A proper amount of test compound was added into a liver microsome reaction system (1 mg/mL liver microsome protein, 25 U/mL glucose-6 phosphate dehydrogenase, 1 mM NADP, 6 mM D-glucose 6-phosphate and 5 mM MgCl2), and then the mixture was incubated in a water bath kettle at 37° C. to start reaction. At each time point, 100 μL of the reaction liquid was added into a centrifuge tube containing 400 μL of internal standard working solution (containing a 200 ng/mL solution of dexamethasone, diclofenac, tolbutamide and labetalol in acetonitrile) precooled at 0° C. so as to stop the reaction, and the mixture was then centrifuged at 10,000 g for 10 min at 4° C. The supernatant was collected for LC-MS assay so as to obtain the values of in vitro metabolic half-life of the test compounds in liver microsomes of various species.

A short description of data set [2]: In vitro metabolic stability, human liver microsome incubation. It is filed as in vitro ADME. To be noted: liver microsomes, 1 mg/mL protein, 37° C., read-out: T1/2 in human liver microsome. The protocol:
as §1

Data set [3] in a line: In vitro cytotoxicity assay in HepG2 cells using the CCK-8 method. It is filed as cell-based. The settings on record: human. The procedure: In vitro cytotoxicity assay for the compounds disclosed herein was performed in HepG2 cells using the CCK-8 method. HepG2 cells (Beina Bio) in the logarithmic growth phase were collected, the concentration of cell suspension was adjusted, and then the cells were plated on a 96-well cell culture plate at 50,000 cells/well. The cells were then incubated overnight in a cell incubator (5%, 37° C.), and after 80-90% cell confluence was achieved, test compound at each concentration gradient or vehicle (DMSO) was added after medium change. The resulting mixture was incubated in the cell incubator (5%, 37° C.) for 48 h. After the treatment, the medium in the plate was discarded. The plate was washed twice with PBS, added with CCK-8 working solution (Beyotime) at 100 μL per well, and then incubated at 37° C. for 1.5 h in the dark. Absorbance at OD450 nm mil was measured for each well on a microplate reader, and CC50 value of each compound was analyzed and calculated.

The target in a further data set is T2, ROCK1 kinase (Homo sapiens, UniProt Q13464).
T2 construct: purchased Invitrogen
Kind of data set: In vitro evaluation of ROCK1 kinase selectivity (HTRF KinEASE-STK time-resolved fluorometric assay). It is filed as biochemical. The settings on record: ROCK1 kinase 0.4 ng/μL, ATP 3.53 μM. The procedure: ROCK1 activity was detected using a 96-well (Cisbio) time-resolved fluorometric assay. The assay for ROCK1 was performed in the following assay buffer: 5 mM MgCl2 (Sigma), 1 mM DTT (Sigma) and 1× kinase buffer. The kinase buffer was used for dilution. 7.5 μL of ROCK1 kinase (Invitrogen) was added to a 96-well microplate to reach a final concentration of 0.4 ng/μL, and then 0.25 μL of test compound (DMSO content: 1%) was added. The mixture was incubated at room temperature for 0.5 h. To start the reaction, the kinase buffer was also used to mix ATP (Aladdin) and the substrate STK-substrate 2-biotin. 7.5 μL of the mixed solution was added to the microplate to reach final concentrations of 3.53 μM and 1 μM. The resulting mixture was incubated at room temperature for 2 h. 5 mL of detection buffer was mixed with STK antibody-Cryptate, and then an appropriate volume of the mixture was mixed with an equal volume of streptavidin-XL665. 10 μL of the resulting mixture was added to stop the reaction. After further incubation for about 1 h, the microplate was read on a Molecular Devices SpectraMax i3x multifunctional microplate reader. The kinase buffer, the STK-substrate 2-biotin, the detection buffer, the STK antibody-Cryptate, and the streptavidin-XL665 were all from HTRF KinEASE-STK kit (Cisbio, 1000 tests, 61GSTXLA).

A short description of data set [4]: In vivo pharmacokinetic study in mice. To be noted: mouse, plasma; for bioavailability: 1 mg/kg Po (fasted) vs 1 mg/kg Iv; for AUC(0-t) / Cmax: 1 mg/kg. The text has this: […] After administration, plasma of mice was collected at specific time points, and the concentration of the compound in the plasma was detected by LC-MS/MS (AB SCIEX Qtrap4500). The PK parameters of the compounds were statistically analyzed and calculated (WinNonlin V5.2, Pharsight) to show the pharmacokinetic properties of the compounds disclosed herein in mice.

A short description of data set [5]: In vitro metabolic stability, rat liver microsome incubation. It is filed as in vitro ADME. To be noted: liver microsomes, 1 mg/mL protein, 37° C., read-out: T1/2 in rat liver microsome. The procedure: as §1

T1 sequence (O75116 whole entry): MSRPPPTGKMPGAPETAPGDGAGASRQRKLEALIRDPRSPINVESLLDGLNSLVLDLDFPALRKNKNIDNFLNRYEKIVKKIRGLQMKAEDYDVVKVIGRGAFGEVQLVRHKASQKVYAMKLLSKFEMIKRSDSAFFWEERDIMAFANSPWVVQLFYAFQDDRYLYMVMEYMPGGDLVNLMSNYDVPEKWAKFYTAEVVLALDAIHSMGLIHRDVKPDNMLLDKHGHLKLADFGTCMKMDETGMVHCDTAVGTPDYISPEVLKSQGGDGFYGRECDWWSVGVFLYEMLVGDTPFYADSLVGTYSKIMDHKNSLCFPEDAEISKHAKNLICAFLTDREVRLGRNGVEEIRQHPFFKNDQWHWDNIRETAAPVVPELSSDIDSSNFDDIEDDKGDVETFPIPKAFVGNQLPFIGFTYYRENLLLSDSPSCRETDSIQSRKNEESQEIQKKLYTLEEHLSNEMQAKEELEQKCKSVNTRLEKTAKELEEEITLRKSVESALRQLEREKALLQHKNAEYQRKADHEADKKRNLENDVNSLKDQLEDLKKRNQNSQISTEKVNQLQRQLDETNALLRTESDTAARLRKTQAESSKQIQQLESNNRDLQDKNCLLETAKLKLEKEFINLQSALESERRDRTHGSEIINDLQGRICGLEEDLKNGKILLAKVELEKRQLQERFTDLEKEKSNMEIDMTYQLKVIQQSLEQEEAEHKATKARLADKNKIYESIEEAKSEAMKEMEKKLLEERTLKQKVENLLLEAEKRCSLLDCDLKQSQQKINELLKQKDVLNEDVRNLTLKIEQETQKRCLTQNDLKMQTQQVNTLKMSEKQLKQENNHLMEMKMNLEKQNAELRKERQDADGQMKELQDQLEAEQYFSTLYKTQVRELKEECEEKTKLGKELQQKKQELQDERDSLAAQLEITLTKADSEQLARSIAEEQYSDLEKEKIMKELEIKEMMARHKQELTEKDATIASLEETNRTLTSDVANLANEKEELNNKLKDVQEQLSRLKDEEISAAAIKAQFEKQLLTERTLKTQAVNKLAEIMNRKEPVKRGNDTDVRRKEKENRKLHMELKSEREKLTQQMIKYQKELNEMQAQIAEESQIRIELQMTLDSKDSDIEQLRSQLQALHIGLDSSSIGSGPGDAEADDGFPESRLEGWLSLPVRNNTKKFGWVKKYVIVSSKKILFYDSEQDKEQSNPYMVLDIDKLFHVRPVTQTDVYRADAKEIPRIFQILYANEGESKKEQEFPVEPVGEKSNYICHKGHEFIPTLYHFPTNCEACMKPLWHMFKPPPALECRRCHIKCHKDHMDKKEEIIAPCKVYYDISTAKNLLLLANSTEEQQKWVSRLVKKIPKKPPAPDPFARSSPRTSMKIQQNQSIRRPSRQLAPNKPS
T2 sequence (Q13464 whole entry): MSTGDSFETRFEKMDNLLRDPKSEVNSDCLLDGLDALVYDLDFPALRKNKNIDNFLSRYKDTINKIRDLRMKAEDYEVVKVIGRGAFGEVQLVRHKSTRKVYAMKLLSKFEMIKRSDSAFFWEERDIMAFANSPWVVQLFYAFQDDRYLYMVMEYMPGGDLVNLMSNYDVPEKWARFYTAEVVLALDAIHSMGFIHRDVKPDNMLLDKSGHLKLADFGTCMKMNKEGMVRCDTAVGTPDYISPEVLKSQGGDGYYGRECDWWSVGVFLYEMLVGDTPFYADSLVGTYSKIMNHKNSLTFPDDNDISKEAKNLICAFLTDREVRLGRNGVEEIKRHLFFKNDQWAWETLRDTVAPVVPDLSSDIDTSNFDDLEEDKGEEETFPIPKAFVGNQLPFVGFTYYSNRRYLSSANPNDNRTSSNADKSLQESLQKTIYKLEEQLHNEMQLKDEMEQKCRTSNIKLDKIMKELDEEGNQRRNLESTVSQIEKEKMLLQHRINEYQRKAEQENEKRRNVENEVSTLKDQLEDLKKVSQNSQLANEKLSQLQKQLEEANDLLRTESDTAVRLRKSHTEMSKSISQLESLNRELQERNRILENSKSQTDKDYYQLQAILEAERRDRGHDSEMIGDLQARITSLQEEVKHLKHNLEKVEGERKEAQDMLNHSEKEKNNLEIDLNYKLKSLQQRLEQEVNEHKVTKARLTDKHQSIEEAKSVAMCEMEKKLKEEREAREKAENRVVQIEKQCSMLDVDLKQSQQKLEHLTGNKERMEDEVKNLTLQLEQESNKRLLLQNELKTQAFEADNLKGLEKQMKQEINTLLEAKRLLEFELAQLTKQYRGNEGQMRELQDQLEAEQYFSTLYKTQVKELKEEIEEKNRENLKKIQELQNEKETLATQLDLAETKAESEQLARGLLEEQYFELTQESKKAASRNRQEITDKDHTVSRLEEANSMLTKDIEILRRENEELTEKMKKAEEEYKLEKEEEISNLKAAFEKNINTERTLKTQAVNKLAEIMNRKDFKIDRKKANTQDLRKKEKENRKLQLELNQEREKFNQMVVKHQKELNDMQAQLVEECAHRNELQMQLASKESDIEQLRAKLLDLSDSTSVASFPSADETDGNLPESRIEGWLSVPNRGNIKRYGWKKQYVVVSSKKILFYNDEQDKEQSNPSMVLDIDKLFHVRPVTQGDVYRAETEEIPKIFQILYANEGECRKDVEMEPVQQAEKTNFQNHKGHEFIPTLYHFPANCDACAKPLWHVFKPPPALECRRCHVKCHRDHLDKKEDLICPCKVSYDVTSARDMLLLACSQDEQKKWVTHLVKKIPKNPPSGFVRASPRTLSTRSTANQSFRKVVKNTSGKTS

As for `Cn1c(C(=O)N2CC(F)(F)C2)cc2c1CN(c1nc(F)cc(Nc3ccc(-c4cn[nH]c4)cc3)n1)CC2` [Compound L030, (6-(4-((4-(1H-pyrazol-4-yl)phenyl)amino)-6-fluoropyrimidin-2-yl)-1-methyl-4,5,6,7-tetrahydro-1H-pyrrolo[2,3-c]pyridin-2-yl)(3,3-difluoroazetidin-1-yl)methanone], the IC50 was 50 to 500 nM on ROCK2 kinase and more than 4.5 µM on ROCK1 kinase. In addition, the figures for the half-life in data set [1], in data set [2] and in data set [5] were 58.2 min, 207 min and 158 min, respectively. Moreover, in data set [3], the CC50 at 48 h is more than 100 µM. This compound had a bioavailability in data set [4] of 30.6%. The values for the AUC(0-t) in data set [4] (Iv) and in data set [4] (Po (fasted)) were 726 ng·h/mL and 225 ng·h/mL, respectively. Moreover, the Cmax in data set [4] (Iv) was determined as 1120 ng/mL; in data set [4] (Po (fasted)), 60 ng/mL.

Consider `Cn1c(C(=O)N2CC(F)(F)C2)cc2c1CN(c1ncnc(Nc3ccc(-c4cn[nH]c4)cc3)n1)CC2` [Compound L036, (6-(4-((4-(1H-pyrazol-4-yl)phenyl)amino)-1,3,5-triazin-2-yl)-1-methyl-4,5,6,7-tetrahydro-1H-pyrrolo(2,3-c)pyridin-2-yl)(3,3-difluoroazetidin-1-yl)methanone], for which the IC50 on ROCK2 kinase was 50 to 500 nM; on ROCK1 kinase, more than 4.5 µM. The half-life was 75.2 min in data set [1], 178 min in data set [2] and 94.4 min in data set [5]. In addition, the CC50 at 48 h in data set [3] was more than 100 µM. The same compound yielded a bioavailability in data set [4] of 59.9%. In addition, the AUC(0-t) was 349 ng·h/mL in data set [4] (Iv) and 209 ng·h/mL in data set [4] (Po (fasted)). Also, the results for the Cmax in data set [4] (Iv) and in data set [4] (Po (fasted)) were 473 ng/mL and 98.7 ng/mL, respectively.

Consider `Cn1c(C(=O)NCC(F)(F)F)cc2c1CN(c1nccc(Nc3ccc(-c4cn[nH]c4)cc3)n1)CC2` [Compound L017, 6-(4-((4-(1H-pyrazol-4-yl)phenyl)amino)pyrimidin-2-yl)-1-methyl-N-(2,2,2-trifluoroethyl)-4,5,6,7-tetrahydro-1H-pyrrolo[2,3-c]pyridine-2-carboxamide], for which the IC50 on ROCK2 kinase was not above 50 nM; at ROCK1 kinase it was more than 4.5 µM. The half-life in data set [1] stood at 45 min; in data set [2] it was 186 min; in data set [5] it was 72.5 min. The CC50 at 48 h in data set [3] is 33.4 µM. The same compound gave a bioavailability in data set [4] of 12.2%. In addition, the AUC(0-t) came out at 872 ng·h/mL in data set [4] (Iv) and 106 ng·h/mL in data set [4] (Po (fasted)). Also, the Cmax worked out at 2570 ng/mL in data set [4] (Iv) and 41.3 ng/mL in data set [4] (Po (fasted)).

On to `Cn1c(C(=O)N2CC(F)(F)C2)cc2c1CN(c1ncc(F)c(Nc3ccc(-c4cn[nH]c4)cc3)n1)CC2` [Compound L027, (6-(4-((4-(1H-pyrazol-4-yl)phenyl)amino)-5-fluoropyrimidin-2-yl)-1-methyl-4,5,6,7-tetrahydro-1H-pyrrolo[2,3-c]pyridin-2-yl)(3,3-difluoroazetidin-1-yl)methanone], for which the IC50 against ROCK2 kinase was not above 50 nM; against ROCK1 kinase, more than 4.5 µM. The half-life in data set [1] came to 617 min; in data set [2] it was 57.4 min; in data set [5], 127 min. The CC50 at 48 h in data set [3] was more than 100 µM. The compound also registered a bioavailability in data set [4] of 82.7%. In addition, the AUC(0-t) is 412 ng·h/mL in data set [4] (Iv) and 341 ng·h/mL in data set [4] (Po (fasted)). In addition, the Cmax came out at 517 ng/mL in data set [4] (Iv) and 116 ng/mL in data set [4] (Po (fasted)).

For the compound `Cn1c(C(=O)N2CC(C(F)F)C2)cc2c1CN(c1nccc(Nc3ccc(-c4cn[nH]c4)cc3)n1)CC2` [Compound L060, (6-(4-((4-(1H-pyrazol-4-yl)phenyl)amino)pyrimidin-2-yl)-1-methyl-4,5,6,7-tetrahydro-1H-pyrrolo[2,3-c]pyridin-2-yl)(3-(difluoromethyl)azetidin-1-yl)methanone], the IC50 against ROCK2 kinase is not above 50 nM; at ROCK1 kinase, more than 4.5 µM. The half-life in data set [1] worked out at 58.2 min; in data set [2], 95.3 min; in data set [5], 69.8 min. In data set [3], this compound showed a CC50 at 48 h of more than 100 µM. The bioavailability in data set [4] is 54%. For the same compound, the values for the AUC(0-t) in data set [4] (Iv) and in data set [4] (Po (fasted)) were 266 ng·h/mL and 144 ng·h/mL, respectively. The Cmax came out at 463 ng/mL in data set [4] (Iv) and 64.5 ng/mL in data set [4] (Po (fasted)).

Regarding `Cn1c(C(=O)N2CC(C#N)C2)cc2c1CN(c1ncc(F)c(Nc3ccc(-c4cn[nH]c4)cc3)n1)CC2` [Compound L056, 1-(6-(4-((4-(1H-pyrazol-4-yl)phenyl)amino)-5-fluoropyrimidin-2-yl)-1-methyl-4,5,6,7-tetrahydro-1H-pyrrolo[2,3-c]pyridin-2-carbonyl)azetidine-3-carbonitrile], the IC50 at ROCK2 kinase was not above 50 nM; against ROCK1 kinase, more than 4.5 µM. Further, the half-life was 42.1 min in data set [1], 60.4 min in data set [2] and 52.8 min in data set [5]. In data set [3], the CC50 at 48 h is more than 100 µM.

With `Cn1c(C(=O)N2CC(C(F)(F)F)C2)cc2c1CN(c1nccc(Nc3ccc(-c4cn[nH]c4)cc3)n1)CC2` [Compound L033], the IC50 is not above 50 nM against ROCK2 kinase and more than 4.5 µM at ROCK1 kinase. For the same compound, the half-life in data set [1] was 50.2 min; in data set [2], 93.2 min; in data set [5], 68.3 min. In data set [3], this compound had a CC50 at 48 h of more than 100 µM.

On to `Cn1c(C(=O)N2CC(F)(F)C2)cc2c1CN(c1nc(Nc3ccc(-c4cn[nH]c4)cc3)c3cccn3n1)CC2` [Compound L057, (6-(4-((4-(1H-pyrazol-4-yl)phenyl)amino)pyrrolo[2,1-f][1,2,4]triazin-2-yl)-1-methyl-4,5,6,7-tetrahydro-1H-pyrrolo[2,3-c]pyridin-2-yl)(3,3-difluoroazetidin-1-yl)methanone], for which the IC50 on ROCK2 kinase was 50 to 500 nM; on ROCK1 kinase, more than 4.5 µM. Further, the half-life was found to be 131 min in data set [1], 190 min in data set [2] and 45.5 min in data set [5]. Also, in data set [3], the CC50 at 48 h was more than 100 µM.

As to `Cn1c(C(=O)OCC(F)(F)F)cc2c1CN(c1nccc(Nc3ccc(-c4cn[nH]c4)cc3)n1)CC2` [Compound L032, 2,2,2-trifluoroethyl 6-(4-((4-(1H-pyrazol-4-yl)phenyl)amino)pyrimidin-2-yl)-1-methyl-4,5,6,7-tetrahydro-1H-pyrrolo[2,3-c]pyridine-2-carboxylate], the IC50 at ROCK2 kinase was 50 to 500 nM; against ROCK1 kinase it was more than 4.5 µM. The half-life in data set [1] came to 33.8 min; in data set [2], 81 min; in data set [5], 42.5 min. Also, the cytotoxic concentration (CC50) at 48 h in data set [3] came out at 28.4 µM.

The compound `Cc1nc(Nc2ccc(-c3cn[nH]c3)cc2)nc(N2CCc3cc(C(=O)N4CC(F)(F)C4)n(C)c3C2)n1` [Compound L044] displayed an IC50 at ROCK2 kinase of 50 to 500 nM. Moreover, the results for the half-life in data set [1], in data set [2] and in data set [5] were 170 min, 439 min and 210 min, respectively. The CC50 at 48 h in data set [3] is 58.1 µM. The same compound came in with a bioavailability in data set [4] of 54.8%. For the same compound, the AUC(0-t) was found to be 787 ng·h/mL in data set [4] (Iv) and 431 ng·h/mL in data set [4] (Po (fasted)). The results for the Cmax in data set [4] (Iv) and in data set [4] (Po (fasted)) were 594 ng/mL and 109 ng/mL, respectively.
